Measured values reported in patent US6846641B2, “In vitro ischemia model” (AGY Therapeutics, Inc., priority 2002, dated 2005).
Counter-ions that a name gives are not always drawn.

Key:
[1] = tested on: CA1 region of mouse hippocampal organotypic tissue cultures; experiment: Oxygen and glucose deprivation (OGD) in iCSF, propidium iodide uptake in mouse hippocampal organotypic cultures; assay type: cell-based; settings: 24 hours of recovery
CA1 cells = settings: given after the ischemic insult; cited from earlier work

SMILES	protective effect (damage in CA1 versus OGD-controls) ([1]; 150 μM, one hour before OGD, in iCSF during 15-minute OGD and throughout recovery) [%]	protective effect against 15-minute-OGD in iCSF (PI-intensity in the CA1-area) ([1]; 150 μM, p<0.0001, n=18-24)	protection of CA1 cells (CA1 cells)	less damage in the CA1 region compared to matched OGD-control cultures ([1]; 20 μM, pretreatment one hour before 15-minute OGD in iCSF) [%]
N[C@H](CCCP(=O)(O)O)C(=O)O [D-AP5, D-2 amino-5-phosphonopentanoic-acid]	70	significant	–	–
C[C@]12N[C@H](Cc3ccccc31)c1ccccc12 [MK-801, dizocilpine maleate]	–	–	protected CA1 cells	90
